{"source": "patent US20200368211A1", "about": "“INHIBITION OF GAMMA-GLUTAMYLTRANSFERASE AND GLUTATHIONE CATABOLISM TO ENHANCE THE EFFICACY OF NF-KB SIGNALLING PATHWAY INHIBITORS” (UNIVERSITAET HEIDELBERG, priority 2017, published 2020)", "key": {"[1]": {"system": "MOLM13 cells", "assay": "MTT cell proliferation assay, MOLM13 cells", "assay_type": "cell-based, human", "details": "for Effect of auranofin and BSO low-dose combination on activity of NF-κB inhibitors, MOLM13: auranofin 0.25-0.5 μM plus BSO 1.25-10 μM with BAY 11-7082 or EF24", "description": "For metabolic activity assays, here MTT-assays, cell density was 3×10^4 cells per well (96 well plate). For ROS/superoxide detection assays cell density was 1×10^5 per tube (volume 1 ml). […] The MTT or XTT assay is the most reliable for assessment of cell growth. In principal all assays are based on staining of viable cells after treatment. Cytotoxic effects in cell lines may also be assessed by [^3H] thymidine incorporation (see below). Cell proliferation was assessed by the MTT assay. […] The plates were incubated for 72 h under standard conditions. After addition of 15 μl of a 5 mg/ml MTT solution (MTT; Sigma, Germany) to each well and incubation for another 4 h, 100 μl/well of a 10% sodium dodecyl sulphate solution in 0.01 M hydrochloric acid were added and the plates were incubated overnight under the same conditions (stain development). Subsequently, the absorbance of each well at 540 nm (reference wavelength 690 nm) was recorded with an absorbance plate reader (Sunrise, Tecan, Switzerland). Blank control values (no drug, no cells) were subtracted from the sample values and the means of replicate wells for each drug dilution and the control (cells grown in absence of the drug) were used to calculate the extent of relative cell proliferation (as percentage of the control) and growth inhibition."}, "[2]": {"system": "MEC1 cells", "assay": "MTT cell proliferation assay, MEC1 cells", "assay_type": "cell-based, human", "details": "for Effect of auranofin and BSO low-dose combination on activity of NF-κB inhibitors, MEC1: auranofin 0.25-0.5 μM plus BSO 1.25-10 μM with BAY 11-7082 or EF24", "description": "For metabolic activity assays, here MTT-assays, cell density was 3×10^4 cells per well (96 well plate). For ROS/superoxide detection assays cell density was 1×10^5 per tube (volume 1 ml). For NF-κB family member activation assays nuclear cell extracts were used (9×10^6 cells/6 ml volume in 6 well plates). The MTT or XTT assay is the most reliable for assessment of cell growth. In principal all assays are based on staining of viable cells after treatment. Cytotoxic effects in cell lines may also be assessed by [^3H] thymidine incorporation (see below). Cell proliferation was assessed by the MTT assay. […] The plates were incubated for 72 h under standard conditions. After addition of 15 μl of a 5 mg/ml MTT solution (MTT; Sigma, Germany) to each well and incubation for another 4 h, 100 μl/well of a 10% sodium dodecyl sulphate solution in 0.01 M hydrochloric acid were added and the plates were incubated overnight under the same conditions (stain development). Subsequently, the absorbance of each well at 540 nm (reference wavelength 690 nm) was recorded with an absorbance plate reader (Sunrise, Tecan, Switzerland). Blank control values (no drug, no cells) were subtracted from the sample values and the means of replicate wells for each drug dilution and the control (cells grown in absence of the drug) were used to calculate the extent of relative cell proliferation (as percentage of the control) and growth inhibition."}, "[3]": {"details": "human plasma, stated as achievable; cited from earlier work"}, "[4]": {"system": "HL60 cells", "assay": "MTT cell proliferation assay, HL60 cells", "assay_type": "cell-based, human", "details": "200 μM OU749, 10% HS", "description": "For assessment of cytostatic and/or cytotoxic effects HL60 cells were washed in serum-free RPMI-1640 medium supplemented with 2 mM L-glutamine and 1% penicillin/streptomycin and diluted to 1.25×10^5/ml (logarithmic cell growth). Cells were incubated with OU749 for 10 minutes prior to addition of serum (FCS or HS, both 10%) to washed cells resulting in a density of 1.11×10^5/ml. For MTT-assays cell density was 1×10^4 cells per well (96 well plate).\nThe MTT or XTT assay is the most reliable for assessment of cell growth. In principal all assays are based on staining of viable cells after treatment. Cytotoxic effects in cell lines may also be assessed by [^3H] thymidine incorporation (see below). Cell proliferation was assessed by the MTT assay. After washing in serum-free medium, pre-incubation with inhibitors of the glutathione catabolism, and addition of defined serum or albumin or serum+albumin concentrations, 90-μl aliquots of the cell suspension (density see above) were dispensed into 96-well flat-bottomed microtitre plates containing 10 μl/well of serial drug dilutions. The plates were incubated for 72 h under standard conditions. After addition of 15 μl of a 5 mg/ml MTT solution (MTT; Sigma, Germany) to each well and incubation for another 4 h, 100 μl/well of a 10% sodium dodecyl sulphate solution in 0.01 M hydrochloric acid were added and the plates were incubated overnight under the same conditions (stain development). Subsequently, the absorbance of each well at 540 nm (reference wavelength 690 nm) was recorded with an absorbance plate reader (Sunrise, Tecan, Switzerland). Blank control values (no drug, no cells) were subtracted from the sample values and the means of replicate wells for each drug dilution and the control (cells grown in absence of the drug) were used to calculate the extent of relative cell proliferation (as percentage of the control) and growth inhibition. Since inhibitors were initially dissolved in DMSO, serial drug dilutions and controls were prepared to finally achieve 0.2% DMSO in all wells (total volume 100 μl); no anti-proliferative effects could be observed at this DMSO concentration in the investigated cell lines.\nAfter washing in serum-free medium cells were diluted to desired density (3.70×10^5/ml for MEC1 and MOLM13, 1.25×10^5/ml for HL60) and HS and FCS was added both in a final concentration of 10%. Then 90-μl aliquots of the cell suspension (densities after addition of serum: 3.33×10^5/ml for MEC1 and MOLM13, 1.1×10^5/ml for HL60) were dispensed into 96-well flat-bottomed microtitre plates containing 10 μl/well of serial drug dilutions of NF-κB inhibitors. The cell concentrations in the 96 well plate were: 3×10^4/well for MEC1 and MOLM13, 1×10^4/well for HL60.\nThen 90-μl aliquots of the cell suspension (densities after addition of serum: 3.33×10^5/ml for MEC1 and MOLM13, 1.1×10^5/ml for HL60) were dispensed into 96-well flat-bottomed microtitre plates containing 10 μl/well of serial drug dilutions of NF-κB inhibitors. The cell concentrations in the 96 well plates were: 3×10^4/well for MEC1 and MOLM13, 1×10^4/well for HL60."}, "[5]": {"system": "MEC1 cells", "assay": "Intracellular ROS/superoxide detection by flow cytometry, MEC1 cells", "assay_type": "cell-based, human", "description": "(§1) Intracellular ROS/superoxide levels were assessed by the ROS/superoxide Detection Assay Kit (ab139476, Abcam, Cambridge, UK) according to the manufacturer's protocol.\n(§2) Cells were incubated with OU749 for 10 minutes prior to addition of serum or albumin (FCS or HS, both 10%, BSA or different HSA preparations as indicated), or albumin-supplemented FCS (supplementation with HSA or BSA: final albumin concentration 4-5 mg/ml). The final cell concentration was 1×10^5/ml/tube (volume 1 ml). Mean fluorescence intensities of at least 10000 events were assessed and compared.\n(§3) ROS and superoxide levels were assessed by flow cytometry using the cellular ROS/superoxide Detection Assay Kit (ab139476, Abcam, Cambridge, UK) according to the manufacturer's protocol. […] Mean fluorescence intensities of at least 10000 events were assessed and compared."}, "[6]": {"system": "MOLM13 cells", "assay": "Intracellular ROS/superoxide detection by flow cytometry, MOLM13 cells", "assay_type": "cell-based, human", "description": "as §1, §2, §3"}, "[7]": {"system": "NF-κB family of transcription factors (p65, p50, c-Rel, p52 and RelB)", "assay": "NF-κB family member activation (TransAM, nuclear extracts), MEC1 cells", "assay_type": "cell-based, human", "details": "200 μM OU749, 10% HS, 4 h", "description": "(§4) After 4 h incubation with defined concentrations of inhibitors of the NF-κB signalling pathway with or without co-incubation with OU749, nuclear extracts were prepared using the AM nuclear extract kit (Active Motif, La Hulpe, Belgium) according to the manufacturer's protocol. Protein concentration of the respective extracts was measured according to the Bradford method and 10 μg of total protein per preparation was used for assessment of the NF-κB family member activation.\n(§5) For the assessment of NF-κB family member activation (p65, p50, c-Rel, p52 and RelB) the TransAM® NF-κB Family Transcription Factor Assay kit was applied (Active Motif, La Hulpe, Belgium) according to the manufacturer's instructions. Results were expressed as relative activation levels (relative to the activation of DMSO controls either in the presence of 10% FCS or 10% HS) and compared between different experimental settings."}, "[8]": {"system": "NF-κB family of transcription factors (p65, p50, c-Rel, p52 and RelB)", "assay": "NF-κB family member activation (TransAM, nuclear extracts), MOLM13 cells", "assay_type": "cell-based, human", "details": "200 μM OU749, 10% HS, 4 h", "description": "as §4, §5"}, "[9]": {"details": "with BAY 11-7082, 10% FCS (to a lesser extent 10% HS), versus H2O"}, "[10]": {"details": "OU749 100 μM for 10% FCS, 200 μM for 10% HS or BSA/HSA 20 mg/ml, versus DMSO"}}, "note": "“Also recorded” adds a separate entry of the source."}
{"molecule": "N[C@@H](CS)C(=O)NCC(=O)O", "note": "[cysteinyl-glycin]", "values": [{"measurement": "Effect of cysteinyl-glycin on activity of NF-κB inhibitors, MOLM13", "setting": "[1]; [9]", "result": "decrease the activity of NF-κB inhibitors"}, {"measurement": "Effect of cysteinyl-glycin on activity of NF-κB inhibitors, MEC1", "setting": "[2]; [9]", "result": "decrease the activity of NF-κB inhibitors"}]}
{"molecule": "CC(=O)OC[C@H]1O[C@@H]([S-])[C@H](OC(C)=O)[C@@H](OC(C)=O)[C@@H]1OC(C)=O.CCP(CC)CC.[Au+]", "note": "[auranofin]", "values": [{"measurement": "Effect of auranofin and BSO low-dose combination on activity of NF-κB inhibitors, MOLM13", "setting": "[1]; 10% HS", "result": "enhance/restore the activity of NF-κB inhibitors"}, {"measurement": "Effect of auranofin and BSO low-dose combination on activity of NF-κB inhibitors, MEC1", "setting": "[2]; 10% HS", "result": "enhance/restore the activity of NF-κB inhibitors"}]}
{"molecule": "C/C(O)=C(\\C#N)C(=O)Nc1ccc(C(F)(F)F)cc1", "note": "[A77 726]", "values": [{"measurement": "Achievable plasma concentrations of the active metabolite of leflunomide", "setting": "[3]", "result": "about 176 μg/ml; also recorded: about 635 μM"}]}
{"molecule": "COc1ccc(Cc2nnc(NS(=O)(=O)c3ccccc3)s2)cc1", "note": "[OU749, N-[5-(4-methoxybenzyl)-1,3,4-thiadiazol-2-yl]benzenesulfonamide]", "values": [{"measurement": "Toxic effects of OU749 in HS-supplemented systems, MOLM13", "setting": "[1]; 200 μM OU749, 10% HS", "result": "no toxic effects"}, {"measurement": "OU749 concentration above which anti-proliferative effects are apparent, MOLM13, 10% FCS", "setting": "[1]; 10% FCS, 72 h, single agent", "result": "above 50 μM"}, {"measurement": "OU749 concentration at which anti-proliferative effects appear, MOLM13, 10% HS", "setting": "[1]; 10% HS, 72 h, single agent", "result": "≥ 200", "unit": "µM"}, {"measurement": "Toxic effects of OU749 in HS-supplemented systems, HL60", "setting": "[4]", "result": "no toxic effects"}, {"measurement": "ROS levels, OU749 versus DMSO, MEC1 in HS medium", "setting": "[5]; 200 μM OU749, 10% HS", "result": "enhanced ROS levels"}, {"measurement": "Intracellular ROS levels, OU749 in presence of serum and albumin, MEC1", "setting": "[5]; [10]", "result": "increases intracellular ROS levels"}, {"measurement": "ROS levels, OU749 versus DMSO, MOLM13 in HS medium", "setting": "[6]; 200 μM OU749, 10% HS", "result": "enhanced ROS levels"}, {"measurement": "Intracellular ROS levels, OU749 in presence of serum and albumin, MOLM13", "setting": "[6]; [10]", "result": "increases intracellular ROS levels"}, {"measurement": "Nuclear levels of NF-κB transcription factors, OU749 alone in HS, MEC1", "setting": "[7]", "result": "increased nuclear levels of different members of the NF-κB family of transcription factors"}, {"measurement": "Nuclear levels of NF-κB transcription factors, OU749 alone in HS, MOLM13", "setting": "[8]", "result": "increased nuclear levels of different members of the NF-κB family of transcription factors"}, {"measurement": "Toxic effects of OU749 in HS-supplemented systems, MEC1", "setting": "[2]; 200 μM OU749, 10% HS", "result": "no toxic effects"}, {"measurement": "OU749 concentration above which anti-proliferative effects are apparent, MEC1, 10% FCS", "setting": "[2]; 10% FCS, 72 h, single agent", "result": "above 50 μM"}, {"measurement": "OU749 concentration at which anti-proliferative effects appear, MEC1, 10% HS", "setting": "[2]; 10% HS, 72 h, single agent", "result": "≥ 200", "unit": "µM"}]}
{"molecule": "CCCCS(=N)(=O)CCC(N)C(=O)O", "note": "(centres unmarked) [BSO, buthionine sulfoximine]", "values": [{"measurement": "Effect of auranofin and BSO low-dose combination on activity of NF-κB inhibitors, MOLM13", "setting": "[1]; 10% HS", "result": "enhance/restore the activity of NF-κB inhibitors"}, {"measurement": "Effect of auranofin and BSO low-dose combination on activity of NF-κB inhibitors, MEC1", "setting": "[2]; 10% HS", "result": "enhance/restore the activity of NF-κB inhibitors"}]}
